Reference: patent publication US11401278B2, “Macrocyclic indole derivatives” (The Broad Institute, Inc., priority 2017, dated 2022)
“And” between values parts separate entries of the source, which are not always exact repeats. Identical values can stand only once. Counter-ions that a name gives are not always drawn. Like-named read-outs stand apart in the source and are kept apart here.

How the values were obtained:
BCL-2 = BCL-2 (Homo sapiens (Human), UniProt P10415); test: Protein-protein interaction assay BCL-2/Bad BH3 peptide (BCL-2 assay, TR-FRET); type: binding; settings: His-BCL-2 / Bad BH3 peptide, median
Procedure: Assay 3 Protein-Protein Interaction Assay: BCL-2/Bad BH3 Peptide (BCL-2 Assay)
The dose-dependent inhibition by the compounds described in this invention of the interaction between BCL-2 and the BH3 domain of Bad (both human) was determined using a steady state binding competition assay with time-resolved fluorescence energy transfer (TR-FRET) readout. For that purpose BCL-2 (amino acids 1-211, C-terminal fused to a hexahistidine (6×His) tag (SEQ ID 5) and a synthetic Bad BH3-derived peptide of sequence Biotin-PEG2-PEG2-NLWAAQRYGRELRR-Nle-SDEFVDSFKK-amide (SEQ ID 4) served as protein receptor and tracer ligand respectively. The recombinant BCL-2 protein (expressed in E. coli) was purchased from BPS Bioscience (San Diego, Calif., USA). The Bad BH3-derived peptide can be obtained from e.g. Biosyntan (Berlin, Germany).
In the assay 11 different concentrations of each compound (0.1 nM, 0.33 nM, 1.1 nM, 3.8 nM, 13 nM, 44 nM, 0.15 μM, 0.51 μM, 1.7 μM, 5.9 μM and 20 μM) were typically measured as duplicates in the same microtiter plate. For that, 100-fold concentrated DMSO solutions were prepared by serial dilutions (1:3.4) of a 2 mM stock solution in a clear, 384-well microtiter plate (Greiner Bio-One, Frickenhausen, Germany). From there, 50 nl were transferred in a dark test plate (Greiner Bio-One, Frickenhausen, Germany). The assay was initiated by addition of 2 μl of a 2.5-fold concentrated His-BCL-2 solution (usually for a 1 nM end concentration in 5 μl reaction volume) in aqueous assay buffer [50 mM Tris/HCl pH 7, 100 mM sodium chloride (NaCl), 50 mM potassium fluoride (KF), 0.005% Tween-20, 2 mM DTT, 0.1% bovine gamma globulin (BGG)] to the compounds in the assay plate. This was followed by a 10-minute incubation step at 22° C. for pre-equilibration of the putative complex between His-BCL-2 and the compounds. After that, 3 μl of a 1.67-fold concentrated solution (in assay buffer) consisting of Bad BH3-derived peptide (1 nM end concentration) and TR-FRET detection reagents [1.67 nM anti-His-Eu cryptate and 1.67 nM streptavidin-XL665 (both from Cisbio Bioassays, Codolet, France)], were added.
The mixture was incubated in the dark for one hour at 22° C. and then overnight at 4° C. The formation of BCL-2/Bad complexes was determined by measuring the resonance energy transfer of the anti-His-Eu-cryptate antibody to the streptavidin-XL665 present in the reaction. For that purpose, the fluorescence emission at 620 nm and 665 nm after excitation at 330-350 nm was measured in a TR-FRET measuring instrument, for instance a Rubystar or a Pherastar (both from BMG Lab Technologies, Offenburg, Germany) or a Viewlux (Perkin-Elmer). The ratio of the emission at 665 nm and at 622 nm was used as indicator of the amount of BCL-2/Bad complexes present.
The resulting data (ratio) were normalized, taking 0% inhibition as the mean value of control measurements (usually 32 data points) where all reagents were included. In this case 50 nl DMSO were used instead of compounds. A 100% inhibition corresponded to the mean value of control measurements (usually 32 data points) where all reagents except BCL-2 were included. IC50 values were determined by regression analysis based on a 4 parameter equation (minimum, maximum, IC50, Hill; Y=Max+(Min−Max)/(1+(X/IC50)^HiII) using the Screener Software (Genedata).

SUDHL5 [1] = test: Induction of caspase-3/7 activity (Assay 4), SUDHL5; type: cell-based; settings: caspase-3/7 induction, median
In short: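 DLBCL cells were exposed to compounds for 3 hours at 37 °C, then caspase-3/7 activation was read with Caspase-Glo 3/7 reagent. After subtracting medium-only background, EC50s were derived with fixed C0=1 and the reference compound's maximal induction as plateau.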

SUDHL5 [2] = test: Antiproliferation assay (Assay 7), SUDHL5; type: cell-based; settings: CellTiter-Glo, median, read-out: Antiproli SUDHL5 [M] (median) IC50
In short: (§1)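 Proliferation over 72 h at 37° C was assessed by luminescent cell viability reagent, referenced to a day 0 plate.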

AMO-1 = test: Antiproliferation assay (Assay 7), AMO-1; type: cell-based; settings: CellTiter-Glo, several values per example
In short: as §1

[3] = Homo sapiens, AMO1, 72 h, read-out: Antiproli AMO-1 [M] IC50
[4] = 72 hours, read-out: Antiproli AMO-1 [M] IC50

Sequence of BCL-2 (P10415 other isoform, or with tags, fused parts or gaps): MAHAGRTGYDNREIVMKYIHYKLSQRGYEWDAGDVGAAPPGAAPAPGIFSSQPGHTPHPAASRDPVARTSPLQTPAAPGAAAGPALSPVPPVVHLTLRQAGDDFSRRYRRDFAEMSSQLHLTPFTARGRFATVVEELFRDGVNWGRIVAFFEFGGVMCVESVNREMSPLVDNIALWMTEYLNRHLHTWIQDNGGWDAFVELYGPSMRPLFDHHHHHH

| Compound | IC50 (BCL-2) | EC50 (SUDHL5 [1]; Homo sapiens, SU-DHL-5, 3 h) | IC50 (SUDHL5 [2]; Homo sapiens, SU-DHL-5, 72 h) | IC50 (AMO-1; [3]) | EC50 (SUDHL5 [1]; 3 hours) | IC50 (SUDHL5 [2]; 72 hours) | IC50 (AMO-1; [4]) | IC50 (AMO-1; 72 hours, listed as 08, read-out: Antiproli AMO-1 [M] IC50) | IC50 (AMO-1; 72 hours, listed as 07, read-out: Antiproli AMO-1 [M] IC50) |
| --- | --- | --- | --- | --- | --- | --- | --- | --- | --- |
| Cc1c2c(nn1C)CN(C)S(=O)(=O)CCCn1c(C(=O)O)c(CCCOc3ccc(F)c4ccccc34)c3ccc(F)c-2c31 [Example 30, (rac)-13-Fluoro-1-(34(4-fluoronaphthalen-1-yl)oxy)propyl)-8,11,12-trimethyl-5,6,9,11-tetrahydro-4H,8H-pyrazolo[3′,4′:4,5][1]thia[2,8]diazacycloundecino[6,7,8-hi]indole-2-carboxylic acid 7,7-dioxide] | > 20000 nM | 1700 nM | 1.4e-06 M | 7e-06 M |  |  |  |  |  |
| Cc1c2c(nn1C)CN(C)S(=O)(=O)CCCn1c(C(=O)O)c(CCCOc3cccc4cc(F)ccc34)c3ccc(F)c-2c31 (single isomer, unassigned; enantiomer 1) [Example 38, (−)-4-fluoro-7-{3-[(6-fluoronaphthalen-1-yl)oxy]propyl}-2,3,14-trimethyl-13,13-dioxo-10,11,12,13,14,15-hexahydro-2H-13lambda^6-pyrazolo[3′,4′:4,5][1,2,8]thiadiazacycloundecino-[6,7,8-hi]indole-8-carboxylic acid (Enantiomer 1)] | > 20000 nM |  |  |  | 20000 nM | 7.8e-06 M | 2.9e-05 M |  |  |
| CCc1c2c(nn1C)C(CCC1CCOCC1)N(C)S(=O)(=O)CCCn1c(C(=O)O)c(CCCOc3cccc4cc(F)ccc34)c3ccc(Cl)c-2c31 (single isomer, unassigned; enantiomer 3) [Example 63, (+)-4-chloro-3-ethyl-7-{3-[(6-fluoronaphthalen-1-yl)oxy]propyl}-2,14-dimethyl-15-[2-(oxan-4-yl)ethyl]-13,13-dioxo-10,11,12,13,14,15-hexahydro-2H-13lambda^6-pyrazolo[3′,4′:4,5][1,2,8]thiadiazacycloundecino[6,7,8-hi]indole-8-carboxylic acid (Enantiomer 3)] | 19000 nM |  |  |  | 40 nM | 7e-08 M | 4e-08 M and 4.5e-08 M and 3.3e-08 M |  |  |
| Cc1c2c(nn1C)CN(C)S(=O)(=O)CCCn1c(C(=O)O)c(CCCOc3cccc4cc(F)ccc34)c3ccc(F)c-2c31 (racemic) [Example 25, (rac)-13-Fluoro-1-(3-((6-fluoronaphthalen-1-yl)oxy)propyl)-8,11,12-trimethyl-5,6,9,11-tetrahydro-4H,8H-pyrazolo[3′,4′:4,5][1]thia[2,8]diazacycloundecino[6,7,8-hi]indole-2-carboxylic acid 7,7-dioxide] | > 20000 nM and 51000 nM and 46000 nM | 670 nM | 4.1e-07 M | 4.1e-06 M |  |  |  |  |  |
| CCc1c2c(nn1C)CN(CCCN1CCOCC1)S(=O)(=O)CCCn1c(C(=O)O)c(CCCOc3cccc4ccccc34)c3cccc-2c31 (racemic) [Example 15, (rac)-12-Ethyl-11-methyl-8-(3-morpholinopropyl)-1-(3-(naphthalen-1-yloxy)propyl)-4,5,6,8,9,11-hexahydropyrazolo[3′,4′:4,5][1,2,8]thiadiazacycloundecino[6,7,8-hi]indole-2-carboxylic acid 7,7-dioxide 2,2,2-trifluoroacetic acid salt] | > 20000 nM | 2500 nM | 1.8e-06 M | 1.2e-05 M |  |  |  |  |  |
| CCc1c2c(nn1C)CN(C)S(=O)(=O)CCCn1c(C(=O)O)c(CCCOc3cccc4ccccc34)c3ccc(Cl)c-2c31 [Example 20, (rac)-13-Chloro-12-ethyl-8,11-dimethyl-1-(3-(naphthalen-1-yloxy)propyl)-5,6,9,11-tetrahydro-4H,8H-pyrazolo[3′,4′:4,5][1]thia[2,8]diazacycloundecino[6,7,8-hi]indole-2-carboxylic acid 7,7-dioxide] | > 20000 nM | 860 nM | 5.2e-07 M | 2.8e-06 M |  |  |  |  |  |
| CCc1c2c(nn1C)CN(C)S(=O)(=O)CCCn1c(C(=O)O)c(CCCOc3cccc4cc(F)ccc34)c3ccc(F)c-2c31 (single isomer, unassigned; enantiomer 1) [Example 8, (+)-3-Ethyl-4-fluoro-7-{3-[(6-fluoronaphthalen-1-yl)oxy]propyl}-2,14-dimethyl-13,13-dioxo-10,11,12,13,14,15-hexahydro-2H-13λ^6-pyrazolo[3′,4′:4,5][1,2,8]thiadiazacycloundecino-[6,7,8-hi]indole-8-carboxylic acid (Enantiomer 1)] | > 20000 nM |  |  |  | 580 nM | 7.6e-07 M |  | 1.5e-06 M |  |
| Cc1c2c(nn1C)C(CCN1CCOCC1)N(C)S(=O)(=O)CCCn1c(C(=O)O)c(CCCOc3cccc4ccccc34)c3cccc-2c31 (single isomer, unassigned; enantiomer 1) [Example 45, 2,3,14-trimethyl-15-[2-(morpholin-4-yl)ethyl]-7-{3-[(naphthalen-1-yl)oxy]propyl}-13,13-dioxo-10,11,12,13,14,15-hexahydro-2H-13lambda^6-pyrazolo[3′,4′:4,5][1,2,8]thiadiazacycloundecino[6,7,8-hi]indole-8-carboxylic acid N-ethylethanamine Salt (Enantiomer 1)] | > 20000 nM |  |  |  | 27000 nM | 1.7e-05 M | 1.5e-05 M |  |  |
| Cc1c2c(nn1C)C(CCN1CCOCC1)N(C)S(=O)(=O)CCCn1c(C(=O)O)c(CCCOc3cccc4cc(F)ccc34)c3ccc(Cl)c-2c31 (racemic) [Example 65, (rac)-4-chloro-7-{3-[(6-fluoronaphthalen-1-yl)oxy]propyl}-2,3,14-trimethyl-15-(rac)-[2-(morpholin-4-yl)ethyl]-13,13-dioxo-10,11,12,13,14,15-hexahydro-2H-13lambda^6-pyrazolo[3′,4′:4,5][1,2,8]thiadiazacycloundecino[6,7,8-hi]indole-8-carboxylic acid (Mixture of Stereoisomers)] | > 20000 nM |  |  |  | 47 nM | 6e-08 M | 7.1e-08 M |  |  |
| CCc1c2c(nn1C)CN(C)S(=O)(=O)CCCn1c(C(=O)O)c(CCCOc3cccc4cc(F)ccc34)c3ccc(F)c-2c31 (racemic) [Example 7, (rac)-12-Ethyl-13-fluoro-1-(3-((6-fluoronaphthalen-1-yl)oxy)propyl)-8,11-dimethyl-5,6,9,11-tetrahydro-4H,8H-pyrazolo[3′,4′:4,5][1]thia[2,8]diazacycloundecino[6,7,8-hi]indole-2-carboxylic acid 7,7-dioxide] | 18000 nM | 510 nM | 2.2e-07 M | 2e-06 M |  |  |  |  | 2.2e-06 M |
